Data set [1] concerns the target human D3 receptor (Homo sapiens (Human), UniProt P35462). The data set can be described thus: Radioligand binding ([3H]-spiperone) to cloned receptors expressed in HEK-293 EBNA cells. The settings on record: HEK293 EBNA cell membranes expressing human D3. How it is done: (§1) HEK293 EBNA cells were transiently transfected with expression plasmids encoding for the human D2 or D3 or for the human 5-HT2A receptor, respectively. The cells were harvested 48 h post-transfection, washed three times with cold PBS and stored at −80° C. prior to use. The pellet was suspended in cold 50 mM Tris-HCl buffer comprising 10 mM EDTA (pH 7.4) and was homogenized with a Polytron (Kinematica AG, Basel, Switzerland) for 20-30 sec at 12.000 rpm. After centrifugation at 48.000×g for 30 min at 4° C., the pellet was resuspended in cold 10 mM Tris-HCl buffer comprising 0.1 mM EDTA (pH 7.4), homogenized, and centrifuged as above. This pellet was further resuspended in a smaller volume of ice cold 10 mM Tris-HCl buffer comprising 0.1 mM EDTA (pH 7.4) and homogenized with a Polytron for 20-30 sec at 12.000 rpm. The protein content of this homogenate was determined with the Bio-Rad (Bradford) Protein Assay (Biorad Laboratories GmbH, München, Germany) according to the instructions of the manufacturer using gamma globulin as the standard. This homogenate was stored at −80° C. in aliquots and thawed immediately prior to use.
(§2) Aliquots of membrane preparations were thawed at RT, resupended in assay buffer (D2, D3: 50 mM Tris-HCl, 120 mM NaCl, 5 mM MgCl2, 1 mM EDTA, 5 mM KCl, 1.5 mM CaCl2, pH=7.4; 5-HT2A: 50 mM Tris-HCl, 10 mM MgCl2, 1 mM EGTA, pH=7.4), homogenized with a Polytron for 20-30 sec at 12.000 rpm and adjusted to a final concentration of approximately 7.5 μg protein/well (D2, D3) and 15 μg protein/well (5-HT2A), respectively.
(§3) The binding affinity (Ki) of the compounds was determined using radioligand binding. Membranes were incubated in a total volume of 200 μl with a fixed concentration of radioligand (final concentration approximately 0.7 nM [^3H]-spiperone for D2, 0.5 nM [^3H]-spiperone for D3, and 1.1 nM [^3H]-ketanserin for 5-HT2A) and ten concentrations of test compound in ranging between 10 μM-0.1 nM for 1 h at RT. At the end of the incubation, the reaction mixtures were filtered on to unifilter 96-well white microplates with bonded GF/C filters (Packard BioScience, Zürich, Switzerland; preincubated for 1 h in 0.1% polyethylenimine (PEI) in assay buffer) with a Filtermate 196 harvester (Packard BioScience) and washed 3 times with cold assay buffer. The nonspecific binding was determined with equally composed reaction mixtures in the presence of 10 μM unlabelled spiperone. Per well 45 μl of Microscint 40 (Perkin Elmer, Schwerzenbach, Switzerland) was added, plates for sealed, shaken for 20 min and counted for 3 min on a Topcount Microplate Scintillation Counter (Can berra Packard SA, Zürich, Switzerland) with quenching correction.
(§4) The CPM value for each duplicate of a concentration of competing compound was averaged (y1), then the % specific binding was calculated according to the equation (((y1−non-specific)/(total binding−non-specific))×100). Graphs were plotted with the % specific binding using XLfit, a curve fitting program that iteratively plots the data using Levenberg-Marquardt algorithm. The single site competition analysis equation used was y=A+((B−A)/(1+((x/C)D))), where y is the % specific binding, A is the minimum y, B is the maximum y, C is the IC50, x is the log 10 of the concentration of the competing compound and D is the slope of the curve (the Hill Coefficient). […] The affinity constant (Ki) was calculated using the Cheng-Prusoff equation Ki=(IC50/1+([L]/Kd), where [L] is the concentration of radioligand and Kd is the dissociation constant of the radioligand at the receptor as determined by the saturation isotherm.

In data set [2] the target is human D2 receptor (Homo sapiens (Human), UniProt P14416). The description is as above. The settings on record: HEK293 EBNA cell membranes expressing human D2. On the procedure:
as §1, §2, §3, §4

The target in data set [3] is human 5-HT2A receptor (Homo sapiens (Human), UniProt P28223). The experiment in a line: Radioligand binding ([3H]-ketanserin) to cloned receptors expressed in HEK-293 EBNA cells. The settings on record: HEK293 EBNA cell membranes expressing human 5-HT2A. On the procedure:
as §1, §2, §3, §4

Sequence of human 5-HT2A receptor (P28223 whole entry): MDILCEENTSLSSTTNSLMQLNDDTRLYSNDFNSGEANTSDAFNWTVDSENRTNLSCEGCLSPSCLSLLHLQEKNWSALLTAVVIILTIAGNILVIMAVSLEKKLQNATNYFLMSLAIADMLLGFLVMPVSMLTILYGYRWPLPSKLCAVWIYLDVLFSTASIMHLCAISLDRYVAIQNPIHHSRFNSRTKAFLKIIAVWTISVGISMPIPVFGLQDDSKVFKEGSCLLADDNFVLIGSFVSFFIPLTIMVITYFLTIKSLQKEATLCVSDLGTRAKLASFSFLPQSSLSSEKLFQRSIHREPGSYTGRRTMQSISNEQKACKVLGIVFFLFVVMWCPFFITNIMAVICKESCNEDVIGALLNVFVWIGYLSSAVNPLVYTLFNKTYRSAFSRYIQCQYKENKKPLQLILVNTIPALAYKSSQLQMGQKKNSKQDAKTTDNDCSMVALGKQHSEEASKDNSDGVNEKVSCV
Sequence of human D2 receptor (P14416 whole entry): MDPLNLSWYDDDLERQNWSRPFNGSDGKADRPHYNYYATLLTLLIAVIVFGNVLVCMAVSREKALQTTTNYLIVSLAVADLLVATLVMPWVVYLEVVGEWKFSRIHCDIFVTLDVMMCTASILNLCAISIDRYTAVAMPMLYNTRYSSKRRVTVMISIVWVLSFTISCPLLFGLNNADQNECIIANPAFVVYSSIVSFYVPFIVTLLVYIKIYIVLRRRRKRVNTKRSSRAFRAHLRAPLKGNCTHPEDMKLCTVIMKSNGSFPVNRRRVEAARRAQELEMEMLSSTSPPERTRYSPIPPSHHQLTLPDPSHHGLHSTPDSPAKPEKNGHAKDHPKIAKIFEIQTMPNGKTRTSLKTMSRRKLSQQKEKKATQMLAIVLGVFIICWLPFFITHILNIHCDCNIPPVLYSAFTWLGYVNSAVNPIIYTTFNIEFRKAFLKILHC
Sequence of human D3 receptor (P35462 whole entry): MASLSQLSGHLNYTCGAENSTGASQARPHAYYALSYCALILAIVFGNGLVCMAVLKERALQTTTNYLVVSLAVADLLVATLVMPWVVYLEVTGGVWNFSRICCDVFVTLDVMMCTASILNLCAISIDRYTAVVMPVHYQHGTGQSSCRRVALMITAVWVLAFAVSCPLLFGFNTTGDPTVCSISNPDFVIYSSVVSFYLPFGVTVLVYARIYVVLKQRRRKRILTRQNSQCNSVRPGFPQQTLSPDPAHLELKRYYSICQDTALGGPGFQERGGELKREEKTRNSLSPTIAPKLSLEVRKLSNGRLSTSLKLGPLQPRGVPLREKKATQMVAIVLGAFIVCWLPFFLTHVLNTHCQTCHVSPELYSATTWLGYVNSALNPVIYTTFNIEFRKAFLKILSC

One may read the melting point as the temperature, or range, at which the solid turns liquid. By Ki is commonly meant the dissociation constant of the complex between target and ligand, obtained from inhibition or displacement. In turn, `O=C(CC1COCCO1)N[C@H]1CC[C@H](CCN2CCC(c3cccc4occc34)CC2)CC1` (mixture of isomers) [Example 12, trans-N-{4-[2-(4-Benzofuran-4-yl-piperidin-1-yl)-ethyl]-cyclohexyl}-rac-2-[1,4]dioxan-2-yl-acetamide] had a melting point of 165 °C. For the same molecule, the Ki in data set [1] was 5.4 nM. Further, the Ki in data set [2] was found to be 219 nM.

`O=C(CC1COCCO1)N[C@H]1CC[C@H](CCN2CCC(c3cccc4c3CCO4)CC2)CC1` (mixture of isomers) [Example 16, trans-N-(4-{2-[4-(2,3-Dihydro-benzofuran-4-yl)-piperidin-1-yl]-ethyl}-cyclohexyl)-rac-2-[1,4]dioxan-2-yl-acetamide]: the melting point was found to be 192 °C. In data set [3], the inhibition constant Ki is 22.3 nM.

`O=C(CC1CCCO1)N[C@H]1CC[C@H](CCN2CCC(c3cccc4c3CCO4)CC2)CC1` (mixture of isomers) [Example 25, trans-N-(4-{2-[4-(2,3-Dihydro-benzofuran-4-yl)-piperidin-1-yl]-ethyl}-cyclohexyl)-rac-2-(tetrahydro-furan-2-yl)-acetamide] returned a melting point of 192 °C.

Regarding `O=C(N[C@H]1CC[C@H](CCN2CCC(c3cccc4c3CCO4)CC2)CC1)C1CCCO1` (mixture of isomers) [Example 53, (RS)-Tetrahydro-furan-2-carboxylic acid trans-(4-{2-[4-(2,3-dihydro-benzofuran-4-yl)-piperidin-1-yl]-ethyl}-cyclohexyl)-amide], the melting point was 160 °C. Moreover, the Ki in data set [1] is 41.5 nM. Moreover, the Ki in data set [3] turned out to be 13.1 nM.

Regarding `O=C(N[C@H]1CC[C@H](CCN2CCC(c3cccc4c3CCO4)CC2)CC1)C1CCCOC1` (mixture of isomers) [Example 54, (RS)-Tetrahydro-pyran-3-carboxylic acid trans-(4-{2-[4-(2,3-dihydro-benzofuran-4-yl)-piperidin-1-yl]-ethyl}-cyclohexyl)-amide], the melting point turned out to be 222 °C. Moreover, the Ki in data set [2] is 633 nM. For the same molecule, the Ki in data set [3] turned out to be 21.3 nM.

For `CCC(C)C(=O)N[C@H]1CC[C@H](CCN2CCC(c3cccc4c3CCO4)CC2)CC1` (mixture of isomers) [Example 62, trans-N-(4-{2-[4-(2,3-Dihydro-benzofuran-4-yl)-piperidin-1-yl]-ethyl}-cyclohexyl)-(RS)-2-methyl-butyramide], the melting point amounted to 210 °C. In addition, the Ki in data set [2] turned out to be 1200 nM. The Ki in data set [3] came to 64.4 nM.

As for `O=C(C[C@@H]1COCCO1)N[C@H]1CC[C@H](CCN2CCC(c3cccc4c3CCO4)CC2)CC1` [Example 21, trans-N-(4-{2-[4-(2,3-Dihydro-benzofuran-4-yl)-piperidin-1-yl]-ethyl}-cyclohexyl)-(R)-2-[1,4]dioxan-2-yl-acetamide], the melting point came to 190 °C. Besides, the Ki in data set [3] stood at 27.9 nM.

The molecule `O=C(C[C@H]1COCCO1)N[C@H]1CC[C@H](CCN2CCC(c3cccc4c3CCO4)CC2)CC1` [Example 22, trans-N-(4-{2-[4-(2,3-Dihydro-benzofuran-4-yl)-piperidin-1-yl]-ethyl}-cyclohexyl)-(8)-2-[1,4]dioxan-2-yl-acetamide] registered a melting point of 190 °C. In addition, in data set [3], the Ki came to 19.4 nM.

Turning to `O=C(C[C@H]1CCCO1)N[C@H]1CC[C@H](CCN2CCC(c3cccc4c3CCO4)CC2)CC1` [Example 31, trans-N-(4-{2-[4-(2,3-Dihydro-benzofuran-4-yl)-piperidin-1-yl]-ethyl}-cyclohexyl)-(R)-2-(tetrahydro-furan-2-yl)-acetamide], the melting point stood at 192 °C.

Molecule `O=C(C[C@@H]1CCCO1)N[C@H]1CC[C@H](CCN2CCC(c3cccc4c3CCO4)CC2)CC1` [Example 32, trans-N-(4-{2-[4-(2,3-Dihydro-benzofuran-4-yl)-piperidin-1-yl]-ethyl}-cyclohexyl)-(S)-2-(tetrahydro-furan-2-yl)-acetamide] yielded a melting point of 192 °C.

The values are drawn from patent US8877778B2, “Benzofurane compounds” (Hoffmann-La Roche Inc., priority 2010, dated 2014).
